Values of other authors, collected in patent publication US7588929B2, “Production of bacteriophage compositions for use in phage therapy” (Phage Biopharm LLC, priority 2002, dated 2009).

System: phage-2 inactivation by BI-LPS
Conditions: inactivation 95% in controls without sugar

Row | SMILES | concentration reducing inactivation to 50%
1 | O=CC[C@@H](O)[C@H](O)[C@H](O)CO [2-deoxy-D-glucose] | 1 M
2 | O=C[C@H](O)[C@@H](O)[C@@H](O)[C@H](O)CO [D-galactose] | about 1.4 M
3 | N[C@H]1C(O)O[C@H](CO)[C@@H](O)[C@@H]1O (stereo partly drawn) [D-glucosamine] | 0.25-0.3 M
4 | O=C[C@H](O)[C@@H](O)[C@H](O)[C@H](O)CO [D-glucose] | 1 M
5 | O=C[C@@H](O)[C@@H](O)[C@H](O)[C@H](O)CO [D-mannose] | 1 M
6 | O=C[C@H](O)[C@@H](O)[C@H](O)CO [D-xylose] | about 1.4 M
7 | C[C@H](O)[C@H](O)[C@@H](O)[C@@H](O)C=O [L-rhamnose] | 1 M
8 | CC(=O)N[C@H]1C(O)O[C@H](CO)[C@@H](O)[C@@H]1O (stereo partly drawn) [N-acetyl-D-glucosamine] | about 1.4 M
